Measured values reported in patent US6682927B2, “Methods and apparatus for the high through-put detection of binding interactions in vivo” (priority 1998, dated 2004).

Legend:
[1] = tested on: cells expressing the plasma membrane localized GFP construct; test: Control: fluorescence of cells expressing plasma membrane localized GFP; assay type: cell-based; conditions: ionomycin and phorbol ester added together
Experimental: FIG. 6. Evanescent wave excitation of fluorescent cytosolic and membrane proteins in adherent cells. (A) Schematic view of the microscope setup (see Materials and Methods section for description). (B) Fluorescent images of RBL cells that express cytosolic GFP (left; representative of 6 experiments) or plasma membrane targeted GFP (right, n=3). A myristoylation/palmitoylation sequence was fused to the N-terminal end of GFP for membrane targeting.
Fluorescent images were recorded from RBL-cells that had similar levels of expressed cytosolic or plasma membrane localized GFP constructs. The targeting of GFP to the plasma membrane utilized a fusion of the 12 amino acid palmitoylation/myristoylation plasma membrane targeting sequence from Lyn to the N-terminus of GFP (Teruel, et al. (1999) J. Neuroscience Methods 93: 37-48). The fluorescence intensity of cells with expressed cytosolic GFP (FIG. 6B) was typically 3 to 10-fold lower than the intensity of cells with expressed plasma membrane targeted GFP (FIG. 6C).
Analysis of Receptor Triggered Translocation of PKCγ-GFP in Thin Cells. […] The changes in fluorescence intensity could be followed in a series of several hundred images. […] Similar receptor-triggered fluorescence intensity oscillations could be observed in RBL cells (FIG. 7D) and 3T3 fibroblasts (data not shown).

[2] = tested on: RBL-cells that express C1A-CaMKII and GFP-CaMKIIα; test: In vivo protein-protein binding assay with inducible C1A translocation domain, evanescent wave excitation; assay type: cell-based, Rat; conditions: PDBu 1 μM, n=3
Text: FIG. 10. Measuring protein-protein binding interactions of cytosolic proteins using an evanescent wave excitation. (A) Schematic representation of the in vivo binding assay. Binding between Proteins X and Y can be measured by conjugating Protein X with GFP and Protein Y with an inducible plasma membrane targeting domain. […] The C1A-domain from PKCγ was used as an inducible translocation domain. […] Typical translocation traces are shown.
Cloning of GFP-Fusion Constructs and Electroporation. […]
Measuring Protein-Protein Binding Interactions with High Signal-to-Background by Evanescent Wave Excitation. Protein-protein binding interactions have been measured previously by using a dual protein fusion strategy in which a protein Y was conjugated with an inducible plasma membrane translocation domain and a protein X with a GFP-tag (FIG. 5A, ref. 40). By inducing plasma membrane translocation of the non-fluorescent protein Y, the increase in plasma membrane fluorescence from the fluorescent protein X becomes a measure for the fraction of protein X that is bound to protein Y (since it is carried along with protein Y to the plasma membrane). […]
Evanescent wave excitation was now used in combination with the same assay. […] RNA transfection was used for quantitative expression of the two constructs (Teruel, et al. (1999) J. Neuroscience Methods 93: 37-48). […]

[3] = tested on: hippocampal astrocytes expressing PKCγ-GFP; test: Plasma membrane translocation of PKCγ-GFP by evanescent wave excitation; assay type: cell-based; conditions: glutamate 100 μM, ionomycin 2 μM
Experimental: FIG. 7. Plasma membrane translocation of PKCγ measured in hippocampal astrocytes by evanescent wave excitation. (A) Time series of fluorescent images of cultured hippocampal astrocytes expressing PKCγ-GFP stimulated with glutamate (100 μM; n=47). […] (B) The same experiment as in (A) but with calcium ionophore added (2 μM ionomycin; n=8). (Bars=10 μm in (A) and (B)). (C) Time course of PKCγ-GFP translocation measured as a fractional increase in fluorescence intensity and triggered by glutamate addition (100 μM, left) to a single astrocyte (left panel; n=47). (D) Similar periodic intensity changes in an RBL stably expressing PAF receptors following the addition of 100 nM PAF. Ionomycin was added at the end of each experiment (2 μM).
Cell Culturing. Rat basophilic leukemia 2H3 (RBL) cells were grown and plated as described by Oancea, et al. ((1997) J. Cell Biol. 140, 485-498) and Oancea, E. & Meyer, T. ((1998) Cell 95, 307-318). […]
Evanescent Wave Excitation and Fluorescence Microscopy (also termed Total Internal Reflection Fluorescence Microscopy or TIRFM). […] For glass coverslips, total internal reflection occurs for angles above 61° [θI,c=arcsin(n2/n1), calculated for a refractive index n1=1.52 for glass and n2=1.33 for water]. […] The space constant of the exponential decay I(z)=I(0)exp(−z/d) at a given angle can be calculated as described by Axelrod ((1981) J. Cell. Biol. 89, 141-145). […]

[4] = tested on: RBL cells expressing PKCγ-YFP; test: E-SCAM measurement of plasma membrane translocation of PKCγ-YFP; assay type: cell-based, Rat; conditions: ionomycin-induced PKCγ translocation in RBL cells; data not shown
Text: FIG. 11. E-SCAM measurement of plasma membrane translocation events in more than a thousand cells. (A) Schematic view of the Evanescent wave Single Cell Array Macroscope (E-SCAM) in which the excitation light is directly coupled into the coverslip. (B) Low magnification images of RBL, cells expressing PKCγ-YFP before (left) and after stimulation with calcium ionophore (right). […] (Bar=1 mm). (C and D) Statistical analysis of receptor-triggered fluorescence intensity changes measured in RBL-cells expressing PKCγ-YFP after stimulation by cross-linking of their FcεRI receptors with the antigen DNP-BSA. (C) Typical time courses. (D) Histogram of the maximum amplitude of fluorescence intensity changes that was measured in each of more than 1000 cells visible in the field of view.
Construction of an Evanescent wave Single Cell Array Macroscope (E-SCAM). A wide-field microscope (macroscope) was designed in similar fashion to the higher magnification system described above. Two Rodenstock 100 mm Heligon lenses were mounted below the coverslip in opposite directions to obtain a combined objective and ocular with 1:1 magnification. The second lens projected the sample image onto a 5 MHz Micromax camera made commercially available from Roper Scientific of Trenton, N.J. This lens combination has high spatial and chromatic accuracy as well as a numerical aperture of NA˜0.3 (F/1.6). […]

Row | SMILES | change in fluorescence intensity of plasma membrane localized GFP (control) [1] | plasma membrane fluorescence change, C1A-CaMKIIα and GFP-CaMKIIα [2] | change in fluorescence intensity (PKCγ-GFP translocation) [3] | cell compliance of induced translocation [4]
1 | CCCC(=O)O[C@@H]1[C@@H](C)[C@@]2(O)[C@@H](C=C(CO)C[C@]3(O)C(=O)C(C)=C[C@@H]23)[C@@H]2C(C)(C)[C@]12OC(=O)CCC [PDBu] | no significant change in fluorescence intensity | marked increase in plasma membrane fluorescence |  | 
2 | N[C@@H](CCC(=O)O)C(=O)O [glutamate] |  |  | marked increase in fluorescence intensity | 
3 | C[C@H](CCC(=O)O)C[C@H](C)C[C@H](C)C(=O)/C=C(\O)[C@H](C)C[C@H](C)C/C=C/[C@@H](C)[C@@H](O)[C@@H](C)[C@@H](O)C[C@@H]1CC[C@@](C)([C@H]2CC[C@@](C)([C@@H](C)O)O2)O1 [ionomycin] | no significant change in fluorescence intensity |  |  | 100%
